These results are taken from US12534474B2, “Dihydrofuropyridine derivatives as rho-kinase inhibitors” (CHIESI FARMACEUTICI S.P.A., priority 2020, dated 2026).

Structures are written as SMILES.

Holding throughout (format): biochemical
For assay [1], the target named is ROCK1 (Homo sapiens, UniProt Q13464). The assay is described as follows: In vitro Rho kinase inhibitory activity assay, ADP-Glo, Method B (ATP 200 μM). Particulars: read-out: Method B ROCK 1 (Ki). Here is the method:
(§1) In Vitro Inhibitory Activity Assay Description (Method B)
(§2) The effectiveness of compounds of the present invention to inhibit Rho kinase activity can be determined in a 10 μL assay containing 40 mM Tris pH7.5, 20 mM MgCl2 0.1 mg/mL BSA, 50 μM DTT and 2.5 μM peptide substrate (Myelin Basic Protein) using an ADP-Glo kit (Promega). Compounds were dissolved in DMSO such that the final concentration of DMSO was 1% in the assay. All reactions/incubations are performed at 25° C. Compound (2 ul) and either Rho kinase 1 or 2 (4 μL) were mixed and incubated for 30 min. Reactions were initiated by addition of ATP (4 μL) such that the final concentration of ATP in the assay was 200 μM. After a 1 hour incubation 10 μL of ADP-Glo Reagent was added and after a further 45 minute incubation 20 ul of Kinase Detection Buffer was added and the mixture incubated for a further 30 minutes. The luminescent signal was measured on a luminometer. […] Compounds were tested in dose-response format and the inhibition of kinase activity was calculated at each concentration of compound. To determine the IC50 (concentration of compound required to inhibit 50% of the enzyme activity) data were fit to a plot of % inhibition vs Log 10 compound concentration using a sigmoidal fit with a variable slope and fixing the maximum to 100% and the minimum to 0%. To determine the Ki values the Cheng-Prusoff equation was utilized (Ki=IC50/(1+[S]/Km).
On the technique in general: ADP-Glo turns the ADP formed in a reaction into a luminescent signal.

Assay [2] deals with ROCK2 (Homo sapiens, UniProt O75116). The assay is described as above. As to conditions: read-out: Method B ROCK 2 (Ki). The protocol: as §1, §2
Sequence of ROCK2 (O75116 whole entry): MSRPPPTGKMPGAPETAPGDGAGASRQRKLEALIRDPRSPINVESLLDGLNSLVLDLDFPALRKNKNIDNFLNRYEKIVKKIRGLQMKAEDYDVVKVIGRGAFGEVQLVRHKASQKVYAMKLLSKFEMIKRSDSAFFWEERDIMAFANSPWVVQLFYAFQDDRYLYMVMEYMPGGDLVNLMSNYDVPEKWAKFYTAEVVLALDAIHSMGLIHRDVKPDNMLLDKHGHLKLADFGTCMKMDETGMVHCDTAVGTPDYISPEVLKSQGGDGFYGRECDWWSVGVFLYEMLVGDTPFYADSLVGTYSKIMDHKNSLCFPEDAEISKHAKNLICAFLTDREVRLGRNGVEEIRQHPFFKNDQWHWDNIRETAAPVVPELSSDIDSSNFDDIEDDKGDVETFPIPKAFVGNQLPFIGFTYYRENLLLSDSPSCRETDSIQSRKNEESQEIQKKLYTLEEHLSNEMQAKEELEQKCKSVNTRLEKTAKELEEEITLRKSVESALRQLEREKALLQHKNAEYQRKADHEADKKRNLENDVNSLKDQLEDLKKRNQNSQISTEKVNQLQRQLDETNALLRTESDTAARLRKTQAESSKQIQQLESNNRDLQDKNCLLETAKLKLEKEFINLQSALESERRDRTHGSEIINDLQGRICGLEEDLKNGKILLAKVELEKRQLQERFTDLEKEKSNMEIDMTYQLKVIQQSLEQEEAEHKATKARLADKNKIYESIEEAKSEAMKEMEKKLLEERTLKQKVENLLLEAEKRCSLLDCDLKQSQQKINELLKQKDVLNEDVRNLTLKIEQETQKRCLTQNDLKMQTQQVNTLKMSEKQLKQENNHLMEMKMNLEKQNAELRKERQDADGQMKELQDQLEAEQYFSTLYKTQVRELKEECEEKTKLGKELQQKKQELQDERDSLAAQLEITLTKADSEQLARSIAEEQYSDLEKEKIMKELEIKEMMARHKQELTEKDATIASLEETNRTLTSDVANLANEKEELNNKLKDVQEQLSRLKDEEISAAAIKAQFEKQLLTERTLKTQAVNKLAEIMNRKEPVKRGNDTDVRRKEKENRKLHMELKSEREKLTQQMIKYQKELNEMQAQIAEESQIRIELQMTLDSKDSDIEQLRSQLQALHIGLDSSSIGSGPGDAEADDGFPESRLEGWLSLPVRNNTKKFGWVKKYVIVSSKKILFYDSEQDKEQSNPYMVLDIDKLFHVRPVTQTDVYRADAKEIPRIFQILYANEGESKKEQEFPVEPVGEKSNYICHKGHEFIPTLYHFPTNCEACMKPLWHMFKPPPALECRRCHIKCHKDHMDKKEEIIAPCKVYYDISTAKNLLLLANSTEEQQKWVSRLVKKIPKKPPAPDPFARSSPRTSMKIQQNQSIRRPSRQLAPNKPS
For assay [3], the target named is PKA (Homo sapiens, UniProt P17612). The assay is described as follows: In vitro inhibitory activity assay for PKA, ADP-Glo, reported as selectivity ratio vs ROCK2. As to conditions: Ki for PKA divided by Ki of ROCK2 (Method B). The protocol: In Vitro Inhibitory Activity Assay Description for PKA
The effectiveness of compounds of the present invention to inhibit PKA activity can be determined in a 10 μL assay containing 40 mM Tris pH7.5, 20 mM MgCl2 0.1 mg/mL BSA, 50 μM DTT and 260 μM peptide substrate (kemptide) using an ADP-Glo kit (Promega). Compounds were dissolved in DMSO such that the final concentration of DMSO was 1% in the assay. All reactions/incubations are performed at 25° C. Compound and PKA enzyme (6 μL) were mixed and incubated for 30 min. Reactions were initiated by addition of ATP (4 μL) such that the final concentration of ATP in the assay was 10 μM. After a 30 minute incubation 10 μL of ADP-Glo Reagent was added and after a further 1 hour incubation 20 μL of Kinase Detection Buffer was added and the mixture incubated for a further 45 minutes. The luminescent signal was measured on a luminometer. […] Compounds were tested in dose-response format and the inhibition of kinase activity was calculated at each concentration of compound. To determine the IC50 (concentration of compound required to inhibit 50% of the enzyme activity) data were fit to a plot of % inhibition vs Log10 compound concentration using a sigmoidal fit with a variable slope and fixing the maximum to 100% and the minimum to 0%. To determine the Ki values the Cheng-Prusoff equation was utilized (Ki=IC50/(1+[S]/Km).
In vitro inhibitory activities for PKA were reported as selectivity ratio vs. ROCK2. Selectivity ratio PKA/ROCK2 was calculated by dividing the Ki value for PKA by Ki value of ROCK2 (Method B) and reported into table 1.

Sequence of ROCK1 (Q13464 whole entry): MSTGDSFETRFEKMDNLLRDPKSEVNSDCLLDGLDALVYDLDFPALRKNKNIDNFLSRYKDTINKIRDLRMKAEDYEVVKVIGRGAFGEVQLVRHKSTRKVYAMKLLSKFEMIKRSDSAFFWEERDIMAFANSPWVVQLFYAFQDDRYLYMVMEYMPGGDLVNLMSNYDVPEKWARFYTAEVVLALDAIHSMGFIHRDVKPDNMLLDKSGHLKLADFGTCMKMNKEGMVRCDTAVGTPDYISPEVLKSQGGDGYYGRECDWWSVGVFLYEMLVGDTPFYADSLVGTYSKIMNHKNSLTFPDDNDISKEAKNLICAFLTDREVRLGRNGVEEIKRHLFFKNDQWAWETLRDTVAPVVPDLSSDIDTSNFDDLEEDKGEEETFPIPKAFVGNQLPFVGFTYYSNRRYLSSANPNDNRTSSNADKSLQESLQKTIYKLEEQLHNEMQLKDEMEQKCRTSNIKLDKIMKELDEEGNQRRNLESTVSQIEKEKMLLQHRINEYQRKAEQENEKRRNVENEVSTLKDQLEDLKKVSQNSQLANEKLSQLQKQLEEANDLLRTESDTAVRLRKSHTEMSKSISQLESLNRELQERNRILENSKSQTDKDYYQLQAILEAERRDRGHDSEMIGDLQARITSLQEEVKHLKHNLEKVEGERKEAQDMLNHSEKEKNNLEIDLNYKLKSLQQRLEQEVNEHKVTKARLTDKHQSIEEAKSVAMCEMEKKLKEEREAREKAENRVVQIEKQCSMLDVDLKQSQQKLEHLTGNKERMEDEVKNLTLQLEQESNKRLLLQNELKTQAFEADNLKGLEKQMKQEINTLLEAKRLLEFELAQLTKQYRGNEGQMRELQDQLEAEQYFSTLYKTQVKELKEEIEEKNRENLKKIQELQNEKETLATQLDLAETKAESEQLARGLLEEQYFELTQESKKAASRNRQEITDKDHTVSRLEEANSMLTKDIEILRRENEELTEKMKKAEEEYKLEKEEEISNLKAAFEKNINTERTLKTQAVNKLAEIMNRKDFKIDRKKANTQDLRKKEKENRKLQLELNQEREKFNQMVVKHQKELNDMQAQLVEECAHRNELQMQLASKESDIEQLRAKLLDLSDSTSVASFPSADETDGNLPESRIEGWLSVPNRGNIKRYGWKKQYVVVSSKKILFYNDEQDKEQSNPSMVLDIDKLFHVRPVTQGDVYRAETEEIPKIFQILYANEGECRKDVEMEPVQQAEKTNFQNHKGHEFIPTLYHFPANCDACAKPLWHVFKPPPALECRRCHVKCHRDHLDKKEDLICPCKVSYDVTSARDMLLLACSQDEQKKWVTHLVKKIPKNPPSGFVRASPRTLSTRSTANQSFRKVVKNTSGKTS

As for `O=C(NCC1(O)CC1)c1cccc(CNc2ncc(-c3ccncc3)c3c2CCO3)c1` [Example 9, N-((1-hydroxycyclopropyl)methyl)-3-(((7-(pyridin-4-yl)-2,3-dihydrofuro[3,2-c]pyridin-4-yl)amino)methyl)benzamide], the Ki in assay [1] and in assay [2] was 3 to 30 nM in each case. In addition, the “Ratio (PKA/ROCK2)” value in assay [3] was “*** (ratio≥10)”.
Take `CNC(=O)c1cccc(CNc2ncc(-c3ccnc(N)c3F)c3c2CCO3)c1` [Example 46, 3-(((7-(2-Amino-3-fluoropyridin-4-yl)-2,3-dihydrofuro[3,2-c]pyridin-4-yl)amino)methyl)-N-methylbenzamide]: the Ki in assay [1] and in assay [2] was 3 to 30 nM in each case. In addition, in assay [3], the “Ratio (PKA/ROCK2)” value was “*** (ratio≥10)”.
Consider `COc1cc(NC(=O)c2cccc(CNc3ncc(-c4ccncc4)c4c3CCO4)c2)ncn1` [Example 31, N-(6-Methoxypyrimidin-4-yl)-3-(((7-(pyridin-4-yl)-2,3-dihydrofuro[3,2-c]pyridin-4-yl)amino)methyl)benzamide], for which the Ki in assay [1] and in assay [2] was ≤ 3 nM throughout. Further, the “Ratio (PKA/ROCK2)” value in assay [3] is reported as “*** (ratio≥10)”.
As to `O=C(NCc1cncnc1)c1cccc(CNc2ncc(-c3ccncc3)c3c2CCO3)c1` [Example 5, 3-(((7-(pyridin-4-yl)-2,3-dihydrofuro[3,2-c]pyridin-4-yl)amino)methyl)-N-(pyrimidin-5-ylmethyl)benzamide], the Ki in assay [1] and in assay [2] was 3 to 30 nM in each case. In addition, in assay [3], the “Ratio (PKA/ROCK2)” value was “*** (ratio≥10)”.
Consider `O=C(NC1CC(CO)C1)c1cccc(CNc2ncc(-c3ccncc3)c3c2CCO3)c1` (centres unmarked) [Example 13, N-(3-(hydroxymethyl)cyclobutyl)-3-(((7-(pyridin-4-yl)-2,3-dihydrofuro[3,2-c]pyridin-4-yl)amino)methyl)benzamide], for which the figures for the Ki in assay [1] and in assay [2] were 3 to 30 nM and ≤ 3 nM, respectively. Also, in assay [3], the “Ratio (PKA/ROCK2)” value is listed as “*** (ratio≥10)”.
With `CNC(=O)c1cccc(CNc2ncc(-c3ccncc3F)c3c2CCO3)c1` [Example 45, 3-(((7-(3-Fluoropyridin-4-yl)-2,3-dihydrofuro[3,2-c]pyridin-4-yl)amino)methyl)-N-methylbenzamide], the Ki in assay [1] and in assay [2] was 3 to 30 nM throughout.
For the compound `O=C(Nc1ccncn1)c1cccc(CNc2ncc(-c3ccncc3)c3c2CCO3)c1` [Example 18, 3-(((7-(pyridin-4-yl)-2,3-dihydrofuro[3,2-c]pyridin-4-yl)amino)methyl)-N-(pyrimidin-4-yl)benzamide], the Ki in assay [1] and in assay [2] was ≤ 3 nM throughout. Also, in assay [3], the “Ratio (PKA/ROCK2)” value is given as “*** (ratio≥10)”.
Turning to `CN(C)CCn1cc(C(=O)Nc2cccc(CNc3ncc(-c4ccncc4)c4c3CCO4)c2)cn1` [Example 41, 1-(2-(Dimethylamino)ethyl)-N-(3-(((7-(pyridin-4-yl)-2,3-dihydrofuro[3,2-c]pyridin-4-yl)amino)methyl)phenyl)-1H-pyrazole-4-carboxamide], the Ki (in general, a measure of affinity in units of concentration, obtained from inhibition or displacement) in assay [1] was 3 to 30 nM; in assay [2], ≤ 3 nM. In addition, the “Ratio (PKA/ROCK2)” value in assay [3] was “*** (ratio≥10)”.
Take `CNC(=O)c1cccc(CNc2ncc(-c3ccncc3)c3c2OCC3)c1` [Example C, N-methyl-3-(((4-(pyridin-4-yl)-2,3-dihydrofuro[2,3-c]pyridin-7-yl)amino)methyl)benzamide, reference compound]: the Ki in assay [1] and in assay [2] was > 30 nM each time. Moreover, the “Ratio (PKA/ROCK2)” value in assay [3] was “*** (ratio≥10)”.
In the case of `O=C(NC1CCOCC1)c1cccc(CNc2ncc(-c3ccncc3)c3c2CCO3)c1` [Example 7, 3-(((7-(pyridin-4-yl)-2,3-dihydrofuro[3,2-c]pyridin-4-yl)amino)methyl)-N-(tetrahydro-2H-pyran-4-yl)benzamide], the Ki in assay [1] and in assay [2] was 3 to 30 nM each time. Further, in assay [3], the “Ratio (PKA/ROCK2)” value is listed as “*** (ratio≥10)”.
Regarding `CC(=O)N1CCC(CCNC(=O)c2cccc(CNc3ncc(-c4ccncc4)c4c3CCO4)c2)CC1` [Example 44, N-(2-(1-Acetylpiperidin-4-yl)ethyl)-3-(((7-(pyridin-4-yl)-2,3-dihydrofuro[3,2-c]pyridin-4-yl)amino)methyl)benzamide], the Ki in assay [1] and in assay [2] was ≤ 3 nM each time. Besides, the “Ratio (PKA/ROCK2)” value in assay [3] is “*** (ratio≥10)”.
Turning to `CC(C)(C)N1CC(CNC(=O)c2cccc(CNc3ncc(-c4ccncc4)c4c3CCO4)c2)CC1=O` (centres unmarked) [Example 15, N-((1-(tert-butyl)-5-oxopyrrolidin-3-yl)methyl)-3-(((7-(pyridin-4-yl)-2,3-dihydrofuro[3,2-c]pyridin-4-yl)amino)methyl)benzamide], the Ki in assay [1] and in assay [2] was ≤ 3 nM throughout. For the same compound, the “Ratio (PKA/ROCK2)” value in assay [3] is recorded as “*** (ratio≥10)”.
With `O=C(Nc1cccnn1)c1cccc(CNc2ncc(-c3ccncc3)c3c2CCO3)c1` [Example 17, N-(pyridazin-3-yl)-3-(((7-(pyridin-4-yl)-2,3-dihydrofuro[3,2-c]pyridin-4-yl)amino)methyl)benzamide], the Ki in assay [1] and in assay [2] was 3 to 30 nM throughout. Moreover, the “Ratio (PKA/ROCK2)” value in assay [3] is “*** (ratio≥10)”.
As to `O=C(NCCC1CCN(C2COC2)CC1)c1cccc(CNc2ncc(-c3ccncc3)c3c2CCO3)c1` [Example 42, N-(2-(1-(Oxetan-3-yl)piperidin-4-yl)ethyl)-3-(((7-(pyridin-4-yl)-2,3-dihydrofuro[3,2-c]pyridin-4-yl)amino)methyl)benzamide], the Ki in assay [1] and in assay [2] was ≤ 3 nM throughout. Also, the “Ratio (PKA/ROCK2)” value in assay [3] is listed as “*** (ratio≥10)”.
As for `O=C(NC1CC2CN(C3COC3)CC2C1)c1cccc(CNc2ncc(-c3ccncc3)c3c2CCO3)c1` (single isomer, unassigned) [Example 43a, N-(2-(oxetan-3-yl)octahydrocyclopenta[c]pyrrol-5-yl)-3-(((7-(pyridin-4-yl)-2,3-dihydrofuro[3,2-c]pyridin-4-yl)amino)methyl)benzamide], the Ki in assay [1] and in assay [2] was ≤ 3 nM each time. Further, the “Ratio (PKA/ROCK2)” value in assay [3] is recorded as “*** (ratio≥10)”.
In the case of `O=C(NC1CC1)c1cccc(CNc2ncc(-c3ccncc3)c3c2CCO3)c1` [Example 16, N-cyclopropyl-3-(((7-(pyridin-4-yl)-2,3-dihydrofuro[3,2-c]pyridin-4-yl)amino)methyl)benzamide], the Ki in assay [1] and in assay [2] was 3 to 30 nM in each case. For the same compound, the “Ratio (PKA/ROCK2)” value in assay [3] was “*** (ratio≥10)”.
Regarding `O=C(NCc1cocn1)c1cccc(CNc2ncc(-c3ccncc3)c3c2CCO3)c1` [Example 8, N-(oxazol-4-ylmethyl)-3-(((7-(pyridin-4-yl)-2,3-dihydrofuro[3,2-c]pyridin-4-yl)amino)methyl)benzamide], the Ki in assay [1] is 3 to 30 nM; in assay [2], ≤ 3 nM. In addition, the “Ratio (PKA/ROCK2)” value in assay [3] is “*** (ratio≥10)”.
In the case of `Cc1cc(CNC(=O)c2cccc(CNc3ncc(-c4ccncc4)c4c3CCO4)c2)no1` [Example 2, N-((5-methylisoxazol-3-yl)methyl)-3-(((7-(pyridin-4-yl)-2,3-dihydrofuro[3,2-c]pyridin-4-yl)amino)methyl)benzamide], the Ki was 3 to 30 nM in assay [1] and ≤ 3 nM in assay [2]. Besides, in assay [3], the “Ratio (PKA/ROCK2)” value is listed as “*** (ratio≥10)”.
